How the values were obtained:
Assay in all cases: relative viability (nuclei count vs DMSO), 5 days (fraction); higher = more cells survive
IPA-3 + Palbociclib = compound: C1=CC=C2C(=C1)C=CC(=C2SSC3=C(C=CC4=CC=CC=C43)O)O [IPA-3] + CC(=O)c1c(C)c2cnc(Nc3ccc(N4CCNCC4)cn3)nc2n(C2CCCC2)c1=O [Palbociclib] (partner 0.5 µM)
Summary of the method: (§1)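 Medians of duplicate plates are given as relative viability. That measure is the nuclei count in treated wells divided by the count in vehicle wells. Counts were taken on 4× images of lung cancer cell lines in 1536-well plates, 5 days after pin-tool dosing the day after seeding with one drug alone or a fixed anchor-drug dose plus five library-drug doses (not always all listed) in √10 steps.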

IPA-3 + Dasatinib = compound: C1=CC=C2C(=C1)C=CC(=C2SSC3=C(C=CC4=CC=CC=C43)O)O [IPA-3] + Cc1nc(Nc2ncc(C(=O)Nc3c(C)cccc3Cl)s2)cc(N2CCN(CCO)CC2)n1 [Dasatinib] (partner 0.075 µM)
Summary of the method: as §1

Doramapimod + OSI-027 = compound: Cc1ccc(-n2nc(C(C)(C)C)cc2NC(=O)Nc2ccc(OCCN3CCOCC3)c3ccccc23)cc1 [Doramapimod] + COc1cccc2cc(-c3nc([C@H]4CC[C@H](C(=O)O)CC4)n4ncnc(N)c34)[nH]c12 [OSI-027] (partner 0.5 µM)
Summary of the method: as §1

Doramapimod + AZD7762 = compound: Cc1ccc(-n2nc(C(C)(C)C)cc2NC(=O)Nc2ccc(OCCN3CCOCC3)c3ccccc23)cc1 [Doramapimod] + NC(=O)Nc1cc(-c2cccc(F)c2)sc1C(=O)N[C@H]1CCCNC1 [AZD7762] (partner 0.2 µM)
Summary of the method: as §1

Row | Cell Line | relative viability (IPA-3 + Palbociclib; first compound 0.2 µM) | relative viability (IPA-3 + Palbociclib; first compound 0.6325 µM) | relative viability (IPA-3 + Palbociclib; first compound 2 µM) | relative viability (IPA-3 + Palbociclib; first compound 6.325 µM) | relative viability (IPA-3 + Palbociclib; first compound 20 µM) | relative viability (IPA-3 + Dasatinib; first compound 0.2 µM) | relative viability (IPA-3 + Dasatinib; first compound 0.6325 µM) | relative viability (IPA-3 + Dasatinib; first compound 2 µM) | relative viability (IPA-3 + Dasatinib; first compound 6.325 µM) | relative viability (IPA-3 + Dasatinib; first compound 20 µM) | relative viability (Doramapimod + OSI-027; first compound 0.02 µM) | relative viability (Doramapimod + OSI-027; first compound 0.06325 µM) | relative viability (Doramapimod + OSI-027; first compound 0.2 µM) | relative viability (Doramapimod + OSI-027; first compound 0.6325 µM) | relative viability (Doramapimod + OSI-027; first compound 2 µM) | relative viability (Doramapimod + AZD7762; first compound 0.02 µM) | relative viability (Doramapimod + AZD7762; first compound 0.06325 µM) | relative viability (Doramapimod + AZD7762; first compound 0.2 µM) | relative viability (Doramapimod + AZD7762; first compound 0.6325 µM) | relative viability (Doramapimod + AZD7762; first compound 2 µM)
1 | NCI-H1651 | 0.534 | 0.511 | 0.541 | 0.528 | 0.602 | 0.652 | 0.304 | 0.486 | 0.574 | 0.458 | 0.751 | 0.701 | 0.727 | 0.729 | 0.656 | 0.441 | 0.478 | 0.435 | 0.441 | 0.356
2 | NCI-H1666 | 0.643 | 0.672 | 0.624 | 0.616 | 0.658 | 0.908 | 0.825 | 0.871 | 0.836 | 0.855 | 0.974 | 0.852 | 0.846 | 0.787 | 0.772 | 0.9 | 0.943 | 1.01 | 0.975 | 0.851
3 | NCI-H1734 | 0.366 | 0.19 | 0.359 | 0.345 | 0.361 | 0.564 | 0.486 | 0.459 | 0.507 | 0.444 | 0.55 | 0.508 | 0.537 | 0.589 | 0.448 | 0.418 | 0.608 | 0.498 | 0.75 | 0.434
4 | NCI-H1755 | 0.464 | 0.488 | 0.422 | 0.43 | 0.44 | 0.512 | 0.44 | 0.371 | 0.426 | 0.472 | 0.709 | 0.659 | 0.727 | 0.669 | 0.586 | 0.428 | 0.5 | 0.379 | 0.477 | 0.412
5 | NCI-H1792 | 0.684 | 0.658 | 0.662 | 0.677 | 0.731 | 1.01 | 0.81 | 0.807 | 0.895 | 1.03 | 0.634 | 0.672 | 0.628 | 0.702 | 0.534 | 0.43 | 0.89 | 0.842 | 0.618 | 0.434
6 | NCI-H1793 | 0.345 | 0.288 | 0.311 | 0.318 | 0.371 | 0.442 | 0.325 | 0.362 | 0.381 | 0.43 | 0.238 | 0.262 | 0.278 | 0.36 | 0.242 | 0.381 | 0.326 | 0.523 | 0.321 | 0.243
7 | NCI-H1915 | 0.498 | 0.514 | 0.534 | 0.495 | 0.54 | 0.317 | 0.297 | 0.312 | 0.316 | 0.334 | 0.591 | 0.622 | 0.671 | 0.606 | 0.561 | 0.694 | 0.734 | 0.771 | 0.82 | 0.664
8 | NCI-H1944 | 0.333 | 0.326 | 0.389 | 0.384 | 0.334 | 0.213 | 0.198 | 0.244 | 0.314 | 0.234 | 0.365 | 0.451 | 0.352 | 0.492 | 0.286 | 0.468 | 0.62 | 0.341 | 0.647 | 0.312
9 | NCI-H1975 | 0.843 | 0.555 | 0.642 | 0.54 | 0.569 | 0.466 | 0.368 | 0.337 | 0.334 | 0.299 | 0.703 | 0.741 | 0.802 | 0.792 | 0.663 | 0.863 | 0.874 | 0.871 | 0.665 | 0.787
10 | NCI-H1993 | 0.702 | 0.732 | 0.656 | 0.516 | 0.545 | 0.567 | 1.77 | 0.63 | 0.364 | 0.585 | 0.573 | 0.566 | 0.59 | 0.495 | 0.522 | 0.751 | 0.675 | 0.608 | 0.781 | 0.557
11 | NCI-H2085 | 0.474 | 0.457 | 0.471 | 0.436 | 0.54 | 0.224 | 0.256 | 0.267 | 0.23 | 0.266 | 0.645 | 0.706 | 0.688 | 0.698 | 0.544 | 1.07 | 0.978 | 1.01 | 1.08 | 1.02
12 | NCI-H2087 | 0.263 | 0.207 | 0.22 | 0.219 | 0.283 | 1.16 | 0.663 | 0.865 | 0.822 | 0.777 | 0.567 | 0.449 | 0.51 | 0.655 | 0.506 | 1.47 | 1.52 | 1.15 | 1.42 | 1.39
13 | NCI-H2126 | 0.33 | 0.369 | 0.335 | 0.343 | 0.375 | 0.709 | 0.58 | 0.68 | 0.633 | 0.545 | 0.79 | 0.689 | 0.631 | 0.71 | 0.58 | 0.865 | 1.02 | 0.942 | 1.02 | 1.04
14 | NCI-H2170 | 0.447 | 0.389 | 0.364 | 0.334 | 0.441 | 0.573 | 0.339 | 0.467 | 0.614 | 0.613 | 0.724 | 0.784 | 0.716 | 0.712 | 0.677 | 0.828 | 0.948 | 0.889 | 1.07 | 0.851
15 | NCI-H2342 | 0.6 | 0.479 | 0.553 | 0.57 | 0.575 | 0.308 | 0.346 | 0.343 | 0.375 | 0.305 | 0.622 | 0.657 | 0.614 | 0.776 | 0.542 | 0.416 | 0.513 | 0.49 | 0.486 | 0.485
16 | NCI-H2347 | 0.409 | 0.45 | 0.429 | 0.414 | 0.448 | 0.357 | 0.305 | 0.336 | 0.41 | 0.336 | 0.509 | – | 0.474 | 0.452 | 0.423 | 0.733 | 0.831 | 0.711 | 0.757 | 0.781

Reference: the supplement of paper PMC10307832
